In ChEMBL document CHEMBL4251615, “Discovery of anilino-furo[2,3-d]pyrimidine derivatives as dual inhibitors of EGFR/HER2 tyrosine kinase and their anticancer activity” (Eur J Med Chem, 2018):

Legend:
TK-10 = assay: Growth inhibition of human TK10 cells assessed as cell growth at 10 uM incubated for 48 hrs by sulforhodamine B assay relative to control; format: functional; settings: TK-10, 48 h, read-out: Activity
OVCAR-5 = assay: Growth inhibition of human OVCAR5 cells assessed as cell growth at 10 uM incubated for 48 hrs by sulforhodamine B assay relative to control; format: functional; settings: OVCAR-5, 48 h, read-out: Activity
K562 = assay: Growth inhibition of human K562 cells assessed as cell growth at 10 uM incubated for 48 hrs by sulforhodamine B assay relative to control; format: functional; settings: K562, 48 h, read-out: Activity
HCC 2998 = assay: Growth inhibition of human HCC2998 cells assessed as cell growth at 10 uM incubated for 48 hrs by sulforhodamine B assay relative to control; format: functional; settings: HCC 2998, 48 h, read-out: Activity
MDA-MB-231 = assay: Growth inhibition of human MDA-MB-231 cells assessed as cell growth at 10 uM incubated for 48 hrs by sulforhodamine B assay relative to control; format: functional; settings: MDA-MB-231, 48 h, read-out: Activity
786-0 = assay: Growth inhibition of human 786-0 cells assessed as cell growth at 10 uM incubated for 48 hrs by sulforhodamine B assay relative to control; format: functional; settings: 786-0, 48 h, read-out: Activity
KM12 = assay: Growth inhibition of human KM12 cells assessed as cell growth at 10 uM incubated for 48 hrs by sulforhodamine B assay relative to control; format: functional; settings: KM12, 48 h, read-out: Activity
CCRF-CEM = assay: Growth inhibition of human CCRF-CEM cells assessed as cell growth at 10 uM incubated for 48 hrs by sulforhodamine B assay relative to control; format: functional; settings: read-out: Activity
SK-OV-3 = assay: Growth inhibition of human SKOV3 cells assessed as cell growth at 10 uM incubated for 48 hrs by sulforhodamine B assay relative to control; format: functional; settings: SK-OV-3, 48 h, read-out: Activity
U-251 = assay: Growth inhibition of human U251 cells assessed as cell growth at 10 uM incubated for 48 hrs by sulforhodamine B assay relative to control; format: functional; settings: U-251, 48 h, read-out: Activity
SK-MEL-5 = assay: Growth inhibition of human SK-MEL-5 cells assessed as cell growth at 10 uM incubated for 48 hrs by sulforhodamine B assay relative to control; format: functional; settings: SK-MEL-5, 48 h, read-out: Activity
BT-549 = assay: Growth inhibition of human BT549 cells assessed as cell growth at 10 uM incubated for 48 hrs by sulforhodamine B assay relative to control; format: functional; settings: BT-549, 48 h, read-out: Activity
RPMI-8226 = assay: Growth inhibition of human RPMI8226 cells assessed as cell growth at 10 uM incubated for 48 hrs by sulforhodamine B assay relative to control; format: functional; settings: RPMI-8226, 48 h, read-out: Activity
RXF 393 = assay: Growth inhibition of human RXF393 cells assessed as cell growth at 10 uM incubated for 48 hrs by sulforhodamine B assay relative to control; format: functional; settings: RXF 393, 48 h, read-out: Activity
A498 = assay: Growth inhibition of human A498 cells assessed as cell growth at 10 uM incubated for 48 hrs by sulforhodamine B assay relative to control; format: functional; settings: A498, 48 h, read-out: Activity
SNB-75 = assay: Growth inhibition of human SNB75 cells assessed as cell growth at 10 uM incubated for 48 hrs by sulforhodamine B assay relative to control; format: functional; settings: SNB-75, 48 h, read-out: Activity
HOP-62 = assay: Growth inhibition of human HOP62 cells assessed as cell growth at 10 uM incubated for 48 hrs by sulforhodamine B assay relative to control; format: functional; settings: HOP-62, 48 h, read-out: Activity
EKVX = assay: Growth inhibition of human EKVX cells assessed as cell growth at 10 uM incubated for 48 hrs by sulforhodamine B assay relative to control; format: functional; settings: read-out: Activity
COLO 205 = assay: Growth inhibition of human COLO205 cells assessed as cell growth at 10 uM incubated for 48 hrs by sulforhodamine B assay relative to control; format: functional; settings: COLO 205, 48 h, read-out: Activity
Hs-578T = assay: Growth inhibition of human Hs 578T cells assessed as cell growth at 10 uM incubated for 48 hrs by sulforhodamine B assay relative to control; format: functional; settings: read-out: Activity
MCF7 = assay: Growth inhibition of human MCF7 cells assessed as cell growth at 10 uM incubated for 48 hrs by sulforhodamine B assay relative to control; format: functional; settings: MCF7, 48 h, read-out: Activity
HT-29 = assay: Growth inhibition of human HT-29 cells assessed as cell growth at 10 uM incubated for 48 hrs by sulforhodamine B assay relative to control; format: functional; settings: HT-29, 48 h, read-out: Activity
A549 = assay: Growth inhibition of human A549/ATCC cells assessed as cell growth at 10 uM incubated for 48 hrs by sulforhodamine B assay relative to control; format: functional; settings: A549, 48 h, read-out: Activity
SK-MEL-28 = assay: Growth inhibition of human SK-MEL-28 cells assessed as cell growth at 10 uM incubated for 48 hrs by sulforhodamine B assay relative to control; format: functional; settings: SK-MEL-28, 48 h, read-out: Activity
NCI-H23 = assay: Growth inhibition of human NCI-H23 cells assessed as cell growth at 10 uM incubated for 48 hrs by sulforhodamine B assay relative to control; format: functional; settings: NCI-H23, 48 h, read-out: Activity
DU-145 = assay: Growth inhibition of human DU145 cells assessed as cell growth at 10 uM incubated for 48 hrs by sulforhodamine B assay relative to control; format: functional; settings: DU-145, 48 h, read-out: Activity
NCI-H460 = assay: Growth inhibition of human NCI-H460 cells assessed as cell growth at 10 uM incubated for 48 hrs by sulforhodamine B assay relative to control; format: functional; settings: NCI-H460, 48 h, read-out: Activity
[1] = target: Epidermal growth factor receptor (Homo sapiens, UniProt P00533); assay: Inhibition of recombinant human C-terminal His/N-terminal GST-tagged EGFR (668 to 1210 residues) expressed in baculovirus infected Sf9 cells at 10 uM using biotin-labeled poly[Glu:Tyr] (4:1) as substrate after 30 mins by Kinase-Glo plus luminescence assay relative to control
SF-268 = assay: Growth inhibition of human SF268 cells assessed as cell growth at 10 uM incubated for 48 hrs by sulforhodamine B assay relative to control; format: functional; settings: SF-268, 48 h, read-out: Activity
CAKI-1 = assay: Growth inhibition of human Caki1 cells assessed as cell growth at 10 uM incubated for 48 hrs by sulforhodamine B assay relative to control; format: functional; settings: CAKI-1, 48 h, read-out: Activity
SF-295 = assay: Growth inhibition of human SF295 cells assessed as cell growth at 10 uM incubated for 48 hrs by sulforhodamine B assay relative to control; format: functional; settings: SF-295, 48 h, read-out: Activity
NCI-H226 = assay: Growth inhibition of human NCI-H226 cells assessed as cell growth at 10 uM incubated for 48 hrs by sulforhodamine B assay relative to control; format: functional; settings: NCI-H226, 48 h, read-out: Activity

Epidermal growth factor receptor, sequence (P00533 whole entry, the tested form may be a part): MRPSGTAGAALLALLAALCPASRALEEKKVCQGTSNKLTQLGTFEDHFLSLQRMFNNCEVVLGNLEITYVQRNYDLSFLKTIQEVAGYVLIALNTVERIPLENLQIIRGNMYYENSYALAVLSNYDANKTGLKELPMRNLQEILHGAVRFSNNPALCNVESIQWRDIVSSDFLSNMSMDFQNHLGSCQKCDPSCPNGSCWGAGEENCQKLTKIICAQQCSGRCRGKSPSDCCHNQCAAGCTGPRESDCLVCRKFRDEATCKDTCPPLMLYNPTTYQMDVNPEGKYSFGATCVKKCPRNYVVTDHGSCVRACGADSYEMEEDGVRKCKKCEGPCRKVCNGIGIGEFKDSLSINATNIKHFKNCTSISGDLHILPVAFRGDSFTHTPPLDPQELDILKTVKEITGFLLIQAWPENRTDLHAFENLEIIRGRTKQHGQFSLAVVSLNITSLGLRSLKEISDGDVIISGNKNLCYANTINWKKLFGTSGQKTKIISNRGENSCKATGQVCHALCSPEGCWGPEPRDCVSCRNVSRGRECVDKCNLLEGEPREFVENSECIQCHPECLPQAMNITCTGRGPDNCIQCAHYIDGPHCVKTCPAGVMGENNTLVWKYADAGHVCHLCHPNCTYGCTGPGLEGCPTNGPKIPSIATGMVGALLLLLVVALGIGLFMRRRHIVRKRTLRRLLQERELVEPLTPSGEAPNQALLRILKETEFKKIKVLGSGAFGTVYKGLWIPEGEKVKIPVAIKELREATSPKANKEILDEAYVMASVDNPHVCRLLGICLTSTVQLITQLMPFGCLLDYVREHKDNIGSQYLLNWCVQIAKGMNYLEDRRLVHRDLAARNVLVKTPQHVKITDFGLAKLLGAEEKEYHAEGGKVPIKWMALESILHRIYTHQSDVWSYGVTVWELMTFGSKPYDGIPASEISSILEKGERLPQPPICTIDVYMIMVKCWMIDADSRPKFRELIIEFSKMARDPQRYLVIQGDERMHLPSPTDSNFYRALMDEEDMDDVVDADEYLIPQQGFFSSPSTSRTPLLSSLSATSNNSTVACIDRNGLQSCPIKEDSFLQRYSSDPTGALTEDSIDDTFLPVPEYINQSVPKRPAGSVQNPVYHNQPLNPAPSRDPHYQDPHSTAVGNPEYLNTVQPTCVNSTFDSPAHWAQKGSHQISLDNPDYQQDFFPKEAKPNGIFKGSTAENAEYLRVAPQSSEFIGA

SMILES	growth at 10 µM (TK-10)	growth at 10 µM (OVCAR-5)	growth at 10 µM (K562)	growth at 10 µM (HCC 2998)	growth at 10 µM (MDA-MB-231)	growth at 10 µM (786-0)	growth at 10 µM (KM12)	growth at 10 µM (CCRF-CEM)	growth at 10 µM (SK-OV-3)	growth at 10 µM (U-251)	growth at 10 µM (SK-MEL-5)	growth at 10 µM (BT-549)	growth at 10 µM (RPMI-8226)	growth at 10 µM (RXF 393)	growth at 10 µM (A498)	growth at 10 µM (SNB-75)	growth at 10 µM (HOP-62)	growth at 10 µM (EKVX)	growth at 10 µM (COLO 205)	growth at 10 µM (Hs-578T)	other results
CCOC(=O)c1c(C)oc2ncnc(Nc3ccc(OCc4cccc(F)c4)cc3)c12	82.7%	94%	107%	108%	101%	86.1%	92.9%	91.2%	104%	96.1%	93.4%	100%	104%	116%	91.6%	119%	87.8%	94.4%	84.2%	87.7%	growth at 10 µM (MCF7): 99.3%; growth at 10 µM (HT-29): 92.7%; growth at 10 µM (A549): 76.4%; growth at 10 µM (SK-MEL-28): 96.9%; growth at 10 µM (NCI-H23): 91.8%; growth at 10 µM (DU-145): 94.9%; growth at 10 µM (NCI-H460): 68.4%; inhibition [1]: 34%; growth at 10 µM (SF-268): 98.8%; growth at 10 µM (CAKI-1): 80.1%; growth at 10 µM (SF-295): 82.7%; growth at 10 µM (NCI-H226): 87.6%
Cc1cccc(Nc2ncnc3oc(C)c(C(=O)NCCO)c23)c1	102%	95.3%	90.2%	99.4%	84.1%	99%	93.9%	74%	94.8%	105%	94.6%	90.7%	95.7%	81.1%	74.7%	110%	98.2%	91.8%	99%	100%	growth at 10 µM (MCF7): 94.8%; growth at 10 µM (HT-29): 99.8%; growth at 10 µM (A549): 89.4%; growth at 10 µM (SK-MEL-28): 102%; growth at 10 µM (NCI-H23): 92.8%; growth at 10 µM (DU-145): 103%; growth at 10 µM (NCI-H460): 102%; inhibition [1]: 36%; growth at 10 µM (SF-268): 98.4%; growth at 10 µM (CAKI-1): 87.2%; growth at 10 µM (SF-295): 96.3%; growth at 10 µM (NCI-H226): 93.3%
Cc1oc2ncnc(Nc3ccc(OCc4cccc(F)c4)c(Cl)c3)c2c1C(=O)NCCO	74.7%	96.9%	33.2%	79.1%	26%	61.2%	68.9%	89.5%	74.2%	48.1%	73.1%	61.7%	70.2%	60%	81.6%	40.5%	51.1%	47.8%	85.7%	46.1%	growth at 10 µM (MCF7): 62.9%; growth at 10 µM (HT-29): 73%; growth at 10 µM (A549): 53.5%; growth at 10 µM (SK-MEL-28): 50.6%; growth at 10 µM (NCI-H23): 58.6%; growth at 10 µM (DU-145): 61.7%; growth at 10 µM (NCI-H460): 34.7%; inhibition [1]: 32%; growth at 10 µM (SF-268): 47.2%; growth at 10 µM (CAKI-1): 74.2%; growth at 10 µM (SF-295): 49.5%; growth at 10 µM (NCI-H226): 40.8%
